Results reported in the OPERA property sets (Mansouri et al. 2018).
≈ marks a conversion by molar mass, not a printed value.

conditions: not given

Compound | logP
Clc1cccc2c1Oc1ccccc1O2 | 4.75
Clc1cc(Cl)c2c(c1Cl)Oc1ccccc1O2 | 6.35
Clc1ccc2c(c1)Oc1ccccc1O2 | 5
c1ccc2c(c1)Oc1ccccc1O2 | 4.3
Clc1cc2c(cc1Cl)Oc1cc(Cl)c(Cl)cc1O2 | 6.8
Clc1c(Cl)c(Cl)c2c(c1Cl)Oc1c(Cl)c(Cl)c(Cl)c(Cl)c1O2 | 8.2
Clc1c(Cl)c(Cl)c2c(c1Cl)Oc1ccccc1O2 | 6.6
Clc1ccc2c(c1)Oc1ccc(Cl)cc1O2 | 5.75
Clc1cc2c(cc1Cl)Oc1c(Cl)c(Cl)c(Cl)c(Cl)c1O2 | 7.8
Clc1cc2c(c(Cl)c1Cl)Oc1c(Cl)c(Cl)c(Cl)c(Cl)c1O2 | 8.2
Clc1ccc2c(c1)Oc1c(Cl)c(Cl)c(Cl)c(Cl)c1O2 | 7.4

same assay, conditions: 25 °C

Compound | solubility [nM]
Clc1cc2c(cc1Cl)Oc1cc(Cl)c(Cl)cc1O2 | 0.621 (≈ 0.2 ng/mL)
Clc1c(Cl)c(Cl)c2c(c1Cl)Oc1ccccc1O2 | 1.96 (≈ 0.63 ng/mL)
